Measurements as given in patent publication US20240199546A1, “INHIBITORS OF SOLUTE CARRIER FAMILY 6A MEMBER 19 (SLC6A19) AND METHODS OF USE THEREOF” (Maze Therapeutics, Inc., priority 2022, published 2024).

The compounds below were run against T1, human SLC6A19 and TMEM27 (Homo sapiens, UniProt Q695T7) (assay: Radiolabelled (3H) leucine uptake in CHO cells with doxycycline-inducible expression of human SLC6A19 and TMEM27 (Example B-1)). Settings: CHO cells with doxycycline-inducible expression of human SLC6A19 and TMEM27, read-out: SLC6A19_Radioligand Uptake Assay IC50.
T1 construct: expressed in transfected cells
T1 sequence (Q695T7 1-634): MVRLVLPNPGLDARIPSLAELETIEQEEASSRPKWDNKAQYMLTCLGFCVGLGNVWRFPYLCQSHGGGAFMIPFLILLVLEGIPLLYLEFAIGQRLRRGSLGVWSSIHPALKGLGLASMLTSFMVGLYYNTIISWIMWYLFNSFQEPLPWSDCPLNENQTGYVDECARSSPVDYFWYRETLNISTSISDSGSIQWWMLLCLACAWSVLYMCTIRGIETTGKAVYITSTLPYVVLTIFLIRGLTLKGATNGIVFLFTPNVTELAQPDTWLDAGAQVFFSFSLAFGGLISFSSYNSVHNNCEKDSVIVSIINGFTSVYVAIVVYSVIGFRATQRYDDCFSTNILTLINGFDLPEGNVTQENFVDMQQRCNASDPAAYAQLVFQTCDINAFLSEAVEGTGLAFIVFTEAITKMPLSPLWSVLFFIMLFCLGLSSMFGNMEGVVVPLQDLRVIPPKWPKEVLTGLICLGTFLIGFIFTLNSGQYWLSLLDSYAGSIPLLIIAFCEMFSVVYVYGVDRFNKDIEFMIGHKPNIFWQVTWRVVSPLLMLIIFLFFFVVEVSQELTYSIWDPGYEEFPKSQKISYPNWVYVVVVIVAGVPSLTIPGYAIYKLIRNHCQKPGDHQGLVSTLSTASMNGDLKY
T1 sequence (Q9HBJ8 15-222 partner): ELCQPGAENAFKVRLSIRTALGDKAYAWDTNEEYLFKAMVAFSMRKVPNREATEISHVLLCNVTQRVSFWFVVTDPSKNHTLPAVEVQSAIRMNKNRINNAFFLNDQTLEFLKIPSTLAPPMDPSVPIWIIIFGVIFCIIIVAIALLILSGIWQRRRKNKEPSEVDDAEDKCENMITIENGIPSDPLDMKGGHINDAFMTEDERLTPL
Type: cell-based
In short: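 CHO cells were induced with doxycycline for 18 h at 37 °C, washed in HBSS, then exposed to compounds for 1 h: 8-point, 3-fold dilutions in duplicate, 0.5% DMSO final. Uptake measured by scintillation counting after 2 h shaking. Activity normalized with positive control as 0% and DMSO as 100%.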

Question: With `Cc1cc(COc2cc3[nH]c(CNC(=O)C4CCO4)cc3cc2Cl)on1` (centres unmarked) [Compound 278, N-((5-chloro-6-((3-methylisoxazol-5-yl)methoxy)-1H-indol-2-yl)methyl)oxetane-2-carboxamide] as the compound, how does the IC50 read?
Answer: The IC50 was 108 nM.

Question: Which IC50 does the source give for `Cc1cc(COc2cc3[nH]c(CNC(=O)COC(F)F)cc3cc2Cl)on1` [Compound 294, N-((5-chloro-6-((3-methylisoxazol-5-yl)methoxy)-1H-indol-2-yl)methyl)-2-(difluoromethoxy)acetamide] here?
Answer: Its IC50 is 135 nM.

Question: With `CC1(C(=O)NCc2cc3cc(Cl)c(OCc4cscn4)cc3[nH]2)CCO1` (centres unmarked) [Compound 260, N-((5-chloro-6-(thiazol-4-ylmethoxy)-1H-indol-2-yl)methyl)-2-methyloxetane-2-carboxamide] as the compound, how does the IC50 read?
Answer: The IC50 was 2350 nM.

Question: `CC1(C(=O)NCc2cc3cc(Cl)c(OCc4cscn4)cc3[nH]2)CCC1` [Compound 506, N-((5-chloro-6-(thiazol-4-ylmethoxy)-1H-indol-2-yl)methyl)-1-methylcyclobutane-1-carboxamide] was tested. Which IC50 did it give?
Answer: The IC50 was 331 nM.

Question: Which IC50 does the source give for `Cc1cc(COc2cc3[nH]c(CNC(=O)C4(C(F)F)CC4)cc3cc2Cl)on1` [Compound 565, N-((5-chloro-6-((3-methylisoxazol-5-yl)methoxy)-1H-indol-2-yl)methyl)-1-(difluoromethyl)cyclopropane-1-carboxamide] here?
Answer: Its IC50 is 286 nM.

Question: With `O=C(NCc1cc2cc(Cl)c(OCc3cscn3)cc2[nH]1)C1CCOC1` (centres unmarked) [Compound 267, N-((5-chloro-6-(thiazol-4-ylmethoxy)-1H-indol-2-yl)methyl)tetrahydrofuran-3-carboxamide] as the compound, how does the IC50 read?
Answer: The IC50 was 720 nM.

Question: For `O=C(NCc1cc2cc(Cl)c(OCc3cscn3)cc2[nH]1)[C@H]1CCO1` [Compound 259, (R)-N-((5-chloro-6-(thiazol-4-ylmethoxy)-1H-indol-2-yl)methyl)oxetane-2-carboxamide], which IC50 is on record?
Answer: The IC50 was 121 nM.

Question: How did the IC50 turn out when `CC1(C(=O)NCc2cc3cc(Cl)c(OCc4cnccc4F)cc3[nH]2)CC1` [Compound 356, N-((5-chloro-6-((4-fluoropyridin-3-yl)methoxy)-1H-indol-2-yl)methyl)-1-methylcyclopropane-1-carboxamide] was run?
Answer: The IC50 was 389 nM.

Question: With `Cc1cc(COc2cc3[nH]c(CNC(=O)C4(C#N)COC4)cc3cc2Cl)on1` [Compound 275, N-((5-chloro-6-((3-methylisoxazol-5-yl)methoxy)-1H-indol-2-yl)methyl)-3-cyanooxetane-3-carboxamide] as the compound, how does the IC50 read?
Answer: Its IC50 is 350 nM.

Question: For `[2H]C([2H])([2H])C1(C(=O)NCc2cc3cc(F)c(OCc4cscn4)cc3[nH]2)CC1` [Compound 482, N-((5-fluoro-6-(thiazol-4-ylmethoxy)-1H-indol-2-yl)methyl)-1-(methyl-d3)cyclopropane-1-carboxamide], which IC50 is on record?
Answer: Its IC50 is 149 nM.

Question: How did the IC50 turn out when `O=C(CC(F)F)NCc1cc2cc(Cl)c(OCc3cscn3)cc2[nH]1` [Compound 513, N-((5-chloro-6-(thiazol-4-ylmethoxy)-1H-indol-2-yl)methyl)-3,3-difluoropropanamide] was run?
Answer: Its IC50 is 86.2 nM.

Question: How did the IC50 turn out when `CC1(C(=O)NCc2cc3ccc(OCc4ccc5ccoc5c4)cc3[nH]2)CC1` [Compound 192, N-((6-(benzofuran-6-ylmethoxy)-1H-indol-2-yl)methyl)-1-methylcyclopropane-1-carboxamide] was run?
Answer: Its IC50 is 2510 nM.

Question: `Cc1cc(COc2cc3[nH]c(CNC(=O)[C@H]4CCCN4C)cc3cc2Cl)on1` [Compound 578, (R)-N-((5-chloro-6-((3-methylisoxazol-5-yl)methoxy)-1H-indol-2-yl)methyl)-1-methylpyrrolidine-2-carboxamide] was tested. Which IC50 did it give?
Answer: The IC50 was > 5550 nM.

Question: Which IC50 does the source give for `O=C(NCc1cc2cc(Cl)c(OCc3cscn3)cc2[nH]1)C1CCCC1` [Compound 489, N-((5-chloro-6-(thiazol-4-ylmethoxy)-1H-indol-2-yl)methyl)cyclopentanecarboxamide] here?
Answer: The IC50 was 325 nM.

Question: For `O=C(NCc1cc2cc(Cl)c(OCc3ccon3)cc2[nH]1)C1CCC1` [Compound 488, N-((5-chloro-6-(isoxazol-3-ylmethoxy)-1H-indol-2-yl)methyl)cyclobutanecarboxamide], which IC50 is on record?
Answer: The IC50 was 161 nM.

Question: For `O=C(NCc1cc2cc(Cl)c(OCc3cscn3)cc2[nH]1)C12CC(C1)C2` [Compound 552, N-((5-chloro-6-(thiazol-4-ylmethoxy)-1H-indol-2-yl)methyl)bicyclo[1.1.1]pentane-1-carboxamide], which IC50 is on record?
Answer: The IC50 was 340 nM.

Question: How did the IC50 turn out when `O=C(NCc1cc2cc(Cl)c(OCc3cscn3)cc2[nH]1)C1CCO1` (centres unmarked) [Compound 269, N-((5-chloro-6-(thiazol-4-ylmethoxy)-1H-indol-2-yl)methyl)oxetane-2-carboxamide] was run?
Answer: Its IC50 is 66.6 nM.

Question: How did the IC50 turn out when `Cc1cc(COc2cc3[nH]c(CNC(=O)CC4(O)CC4)cc3cc2Cl)on1` [Compound 237, N-((5-chloro-6-((3-methylisoxazol-5-yl)methoxy)-1H-indol-2-yl)methyl)-2-(1-hydroxycyclopropyl)acetamide] was run?
Answer: The IC50 was 1410 nM.

Question: For `CC(=O)NCc1cc2cc(Cl)c(OCC3COCCO3)cc2[nH]1` (centres unmarked) [Compound 457, N-((6-((1,4-dioxan-2-yl)methoxy)-5-chloro-1H-indol-2-yl)methyl)acetamide], which IC50 is on record?
Answer: The IC50 was 3640 nM.

Question: `O=C(NCc1cc2cc(Cl)c(OCc3cscn3)cc2[nH]1)C1CCCO1` (centres unmarked) [Compound 268, N-((5-chloro-6-(thiazol-4-ylmethoxy)-1H-indol-2-yl)methyl)tetrahydrofuran-2-carboxamide] was tested. Which IC50 did it give?
Answer: The IC50 was 421 nM.

Question: `Cc1cc(COc2cc3[nH]c(CNC(=O)[C@H]4CCN4C)cc3cc2Cl)on1` [Compound 575, (R)-N-((5-chloro-6-((3-methylisoxazol-5-yl)methoxy)-1H-indol-2-yl)methyl)-1-methylazetidine-2-carboxamide] was tested. Which IC50 did it give?
Answer: The IC50 was 3050 nM.

Question: With `Cc1cc(COc2cc3[nH]c(CNC(=O)C4COC4)cc3cc2Cl)on1` [Compound 274, N-((5-chloro-6-((3-methylisoxazol-5-yl)methoxy)-1H-indol-2-yl)methyl)oxetane-3-carboxamide] as the compound, how does the IC50 read?
Answer: The IC50 was 175 nM.

Question: `CC1(C(=O)NCc2cc3cc(Cl)c(OCC4COC4)cc3[nH]2)CC1` [Compound 336, N-((5-chloro-6-(oxetan-3-ylmethoxy)-1H-indol-2-yl)methyl)-1-methylcyclopropane-1-carboxamide] was tested. Which IC50 did it give?
Answer: Its IC50 is 1190 nM.

Question: For `CC[C@@H](O)C(=O)NCc1cc2cc(Cl)c(OCc3cc(C)no3)cc2[nH]1` [Compound 241, (R)-N-((5-chloro-6-((3-methylisoxazol-5-yl)methoxy)-1H-indol-2-yl)methyl)-2-hydroxybutanamide], which IC50 is on record?
Answer: Its IC50 is 1020 nM.

Question: For `Cc1cc(COc2cc3[nH]c(CNC(=O)C45CC(CO4)C5)cc3cc2Cl)on1` [Compound 301, N-((5-chloro-6-((3-methylisoxazol-5-yl)methoxy)-1H-indol-2-yl)methyl)-2-oxabicyclo[2.1.1]hexane-1-carboxamide], which IC50 is on record?
Answer: The IC50 was 327 nM.

Question: With `Cc1cc(COc2cc(F)c3cc(CNC(=O)C4(C)CC4)[nH]c3c2)on1` [Compound 339, N-((4-fluoro-6-((3-methylisoxazol-5-yl)methoxy)-1H-indol-2-yl)methyl)-1-methylcyclopropane-1-carboxamide] as the compound, how does the IC50 read?
Answer: The IC50 was 328 nM.

Question: How did the IC50 turn out when `CC(F)(F)C(=O)NCc1cc2cc(F)c(OCc3cscn3)cc2[nH]1` [Compound 436, 2,2-difluoro-N-((5-fluoro-6-(thiazol-4-ylmethoxy)-1H-indol-2-yl)methyl)propanamide] was run?
Answer: Its IC50 is 97 nM.

Question: Which IC50 does the source give for `Cc1cc(COc2cc3[nH]c(CNC(=O)C(C)F)cc3cc2Cl)on1` (racemic) [Compound 442, (S)-N-((5-chloro-6-((3-methylisoxazol-5-yl)methoxy)-1H-indol-2-yl)methyl)-2-fluoropropanamide and (R)-N-((5-chloro-6-((3-methylisoxazol-5-yl)methoxy)-1H-indol-2-yl)methyl)-2-fluoropropanamide] here?
Answer: The IC50 was 75.2 nM.

Question: For `O=C(NCc1cc2cc(Cl)c(OCc3cscn3)cc2[nH]1)C1CC2(CCC2)C1` [Compound 557, N-((5-chloro-6-(thiazol-4-ylmethoxy)-1H-indol-2-yl)methyl)spiro[3.3]heptane-2-carboxamide], which IC50 is on record?
Answer: The IC50 was > 8240 nM.

Question: With `CCC(=O)NCc1cc2c(F)cc(OCc3ccon3)cc2[nH]1` [Compound 517, N-((4-fluoro-6-(isoxazol-3-ylmethoxy)-1H-indol-2-yl)methyl)propionamide] as the compound, how does the IC50 read?
Answer: Its IC50 is 243 nM.

Question: For `O=C(NCc1cc2cc(F)c(OCc3cocn3)cc2[nH]1)N1CCCC1` [Compound 115, N-((5-fluoro-6-(oxazol-4-ylmethoxy)-1H-indol-2-yl)methyl)pyrrolidine-1-carboxamide], which IC50 is on record?
Answer: The IC50 was 230 nM.

Question: `Cc1cc(COc2cc3[nH]c(CNC(=O)[C@H]4CCCO4)cc3cc2Cl)on1` [Compound 311, (R)-N-((5-chloro-6-((3-methylisoxazol-5-yl)methoxy)-1H-indol-2-yl)methyl)tetrahydrofuran-2-carboxamide] was tested. Which IC50 did it give?
Answer: The IC50 was 129 nM.
